This note sets out measurements from PubChem BioAssay AID825 (PCMD, 2007).

Inconclusive results are not listed. Calls of active or inactive are those of the source. The rule behind the calls is not given here.

For the experiment, the target named is Procathepsin L (Homo sapiens) (UniProt P07711). Put plainly: IC50 of CTSL protease blockers – biochemical, confirmation, dose response (AID 825). To be noted: purified cathepsin L enzyme activity, signal read-out.
Sequence of Procathepsin L (Homo sapiens) (P07711 114-288 limits assumed): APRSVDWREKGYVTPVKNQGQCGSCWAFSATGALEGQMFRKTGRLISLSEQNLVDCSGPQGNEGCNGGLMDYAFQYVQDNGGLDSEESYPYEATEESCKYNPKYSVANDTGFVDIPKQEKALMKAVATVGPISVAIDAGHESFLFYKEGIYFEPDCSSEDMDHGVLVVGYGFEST
Sequence of Procathepsin L (Homo sapiens) (P07711 292-333 limits assumed): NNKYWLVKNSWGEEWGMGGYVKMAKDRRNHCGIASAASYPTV

In the case of `CC(=O)Nc1nc2n(n1)C(c1ccc(F)cc1)C=C(c1ccccc1)N2` (configuration not stated), the IC50 is > 50 µM (inactive).

As for `COc1ccc(OC)c(C2C(C#N)=C(N)Oc3cc(C)n(Cc4ccccn4)c(=O)c32)c1` (configuration not stated), the IC50 is > 50 µM (inactive).

As usually defined, the IC50 is the point on the concentration scale where inhibition reaches its midpoint.
